According to the NIST ThermoML archive (doi:10.1016/j.jct.2015.05.024):

Test: xn = mol fraction of the nth substance listed
Details: 100 kPa, Liquid; for mass density: Vibrating tube method; for speed of sound: Frequency=5 MHz, Pulse-echo method

OCCOCCOCCO [triethylene glycol] + O
Details	mass density [kg/m3]	speed of sound [m/s]
303.15 K, x1 = 0.04979	1041.3	–
303.15 K, x1 = 0.06996	1054	–
303.15 K, x1 = 0.09424	1066.08	–
303.15 K, x1 = 0.1481	1084.03	–
303.15 K, x1 = 0.2006	1094.18	–
303.15 K, x1 = 0.2502	1100.12	–
303.15 K, x1 = 0.2988	1103.95	–
303.15 K, x1 = 0.3492	1106.7	–
303.15 K, x1 = 0.3925	1108.43	–
303.15 K, x1 = 0.4502	1110.16	–
303.15 K, x1 = 0.4877	1111.03	–
303.15 K, x1 = 0.5004	1111.29	–
303.15 K, x1 = 0.5739	1112.54	–
303.15 K, x1 = 0.58	1112.63	–
303.15 K, x1 = 0.6465	1113.45	–
303.15 K, x1 = 0.651	1113.5	–
303.15 K, x1 = 0.7008	1113.98	–
303.15 K, x1 = 0.7471	1114.36	–
303.15 K, x1 = 0.7677	1114.51	–
303.15 K, x1 = 0.82	1114.86	–
303.15 K, x1 = 0.8623	1115.11	–
303.15 K, x1 = 0.8792	1115.2	–
303.15 K, x1 = 0.8975	1115.3	–
303.15 K, x1 = 0.9203	1115.41	–
303.15 K, x1 = 0.9514	1115.57	–
303.15 K, x1 = 0.9692	1115.66	–
303.15 K, x1 = 1	1115.81	–
308.15 K, x1 = 0.000704	–	1522.8
308.15 K, x1 = 0.002176	–	1528.1
308.15 K, x1 = 0.005721	–	1540.6
308.15 K, x1 = 0.01035	–	1556
308.15 K, x1 = 0.0107	1005.7	–
308.15 K, x1 = 0.01513	–	1570.7
308.15 K, x1 = 0.02047	1015.27	–
308.15 K, x1 = 0.02389	–	1595
308.15 K, x1 = 0.03177	–	1614.1
308.15 K, x1 = 0.03972	1031.49	–
308.15 K, x1 = 0.0428	–	1637
308.15 K, x1 = 0.04979	1038.74	–
308.15 K, x1 = 0.05056	–	1650.6
308.15 K, x1 = 0.05793	–	1661.8
308.15 K, x1 = 0.06447	–	1670.6
308.15 K, x1 = 0.06996	1051.15	–
308.15 K, x1 = 0.07343	–	1680.8
308.15 K, x1 = 0.08342	–	1690
308.15 K, x1 = 0.09076	–	1695.5
308.15 K, x1 = 0.09424	1062.94	–
308.15 K, x1 = 0.1028	–	1702.6
308.15 K, x1 = 0.1137	–	1707.1
308.15 K, x1 = 0.1189	–	1708.7
308.15 K, x1 = 0.1229	–	1709.7
308.15 K, x1 = 0.1231	–	1709.7
308.15 K, x1 = 0.1269	–	1710.5
308.15 K, x1 = 0.1308	–	1711.1
308.15 K, x1 = 0.1403	–	1712.1
308.15 K, x1 = 0.1427	–	1712.2
308.15 K, x1 = 0.1481	1080.5	1712.3
308.15 K, x1 = 0.1594	–	1711.9
308.15 K, x1 = 0.1659	–	1711.3
308.15 K, x1 = 0.1738	–	1710.3
308.15 K, x1 = 0.1858	–	1708.3
308.15 K, x1 = 0.1969	–	1706
308.15 K, x1 = 0.2006	1090.47	–
308.15 K, x1 = 0.2172	–	1701
308.15 K, x1 = 0.2467	–	1692.8
308.15 K, x1 = 0.2502	1096.32	–
308.15 K, x1 = 0.2825	–	1682.6
308.15 K, x1 = 0.2988	1100.12	–
308.15 K, x1 = 0.3259	–	1670.8
308.15 K, x1 = 0.3492	1102.85	–
308.15 K, x1 = 0.3691	–	1660.3
308.15 K, x1 = 0.3925	1104.57	–
308.15 K, x1 = 0.4352	–	1646.2
308.15 K, x1 = 0.4502	1106.3	–
308.15 K, x1 = 0.4877	1107.17	–
308.15 K, x1 = 0.5004	1107.43	–
308.15 K, x1 = 0.5067	–	1632.7
308.15 K, x1 = 0.5739	1108.68	–
308.15 K, x1 = 0.58	1108.77	–
308.15 K, x1 = 0.6111	–	1615.9
308.15 K, x1 = 0.6465	1109.59	–
308.15 K, x1 = 0.651	1109.63	–
308.15 K, x1 = 0.7008	1110.12	–
308.15 K, x1 = 0.7471	1110.49	–
308.15 K, x1 = 0.7677	1110.64	–
308.15 K, x1 = 0.7783	–	1598.5
308.15 K, x1 = 0.82	1110.99	–
308.15 K, x1 = 0.8623	1111.23	–
308.15 K, x1 = 0.8792	1111.32	–
308.15 K, x1 = 0.8912	–	1591.9
308.15 K, x1 = 0.8975	1111.42	–
308.15 K, x1 = 0.9203	1111.54	–
308.15 K, x1 = 0.9514	1111.69	–
308.15 K, x1 = 0.9608	–	1587.5
308.15 K, x1 = 0.9692	1111.78	–
308.15 K, x1 = 1	1111.92	1584.6
313.15 K, x1 = 0.00059	–	1530.8
313.15 K, x1 = 0.002696	–	1537.9
313.15 K, x1 = 0.006871	–	1551.2
313.15 K, x1 = 0.01006	–	1560.8
313.15 K, x1 = 0.0107	1003.69	–
313.15 K, x1 = 0.01494	–	1574.7
313.15 K, x1 = 0.02047	1013.09	–
313.15 K, x1 = 0.02274	–	1594.6
313.15 K, x1 = 0.02979	–	1610.7
313.15 K, x1 = 0.03584	–	1623
313.15 K, x1 = 0.03972	1028.97	–
313.15 K, x1 = 0.04219	–	1634.6
313.15 K, x1 = 0.04979	1036.07	–
313.15 K, x1 = 0.05045	–	1647.8
313.15 K, x1 = 0.05689	–	1656.8
313.15 K, x1 = 0.06687	–	1668.7
313.15 K, x1 = 0.06996	1048.19	–
313.15 K, x1 = 0.07692	–	1678.3
313.15 K, x1 = 0.08288	–	1683
313.15 K, x1 = 0.09135	–	1688.6
313.15 K, x1 = 0.09262	–	1689.3
313.15 K, x1 = 0.09424	1059.72	–
313.15 K, x1 = 0.1004	–	1693.3
313.15 K, x1 = 0.1079	–	1696.2
313.15 K, x1 = 0.116	–	1698.7
313.15 K, x1 = 0.1201	–	1699.6
313.15 K, x1 = 0.1232	–	1700.2
313.15 K, x1 = 0.1303	–	1701.1
313.15 K, x1 = 0.1343	–	1701.5
313.15 K, x1 = 0.1377	–	1701.6
313.15 K, x1 = 0.1423	–	1701.7
313.15 K, x1 = 0.1481	1076.91	–
313.15 K, x1 = 0.1573	–	1701
313.15 K, x1 = 0.1723	–	1699
313.15 K, x1 = 0.1866	–	1696.2
313.15 K, x1 = 0.2006	1086.71	–
313.15 K, x1 = 0.2037	–	1692.2
313.15 K, x1 = 0.2426	–	1681.2
313.15 K, x1 = 0.2502	1092.5	–
313.15 K, x1 = 0.2794	–	1670.3
313.15 K, x1 = 0.2988	1096.26	–
313.15 K, x1 = 0.3209	–	1658.6
313.15 K, x1 = 0.3492	1098.98	–
313.15 K, x1 = 0.3925	1100.7	–
313.15 K, x1 = 0.403	–	1638.8
313.15 K, x1 = 0.4502	1102.42	–
313.15 K, x1 = 0.4658	–	1626
313.15 K, x1 = 0.4877	1103.29	–
313.15 K, x1 = 0.5004	1103.55	–
313.15 K, x1 = 0.5676	–	1608
313.15 K, x1 = 0.5739	1104.8	–
313.15 K, x1 = 0.58	1104.89	–
313.15 K, x1 = 0.6465	1105.71	–
313.15 K, x1 = 0.651	1105.76	–
313.15 K, x1 = 0.6969	–	1590.8
313.15 K, x1 = 0.7008	1106.24	–
313.15 K, x1 = 0.7471	1106.61	–
313.15 K, x1 = 0.7677	1106.76	–
313.15 K, x1 = 0.82	1107.11	–
313.15 K, x1 = 0.8623	1107.35	–
313.15 K, x1 = 0.8694	–	1577.9
313.15 K, x1 = 0.8792	1107.44	–
313.15 K, x1 = 0.9455	–	1572.9
313.15 K, x1 = 1	–	1569.1
